Experimental data published in a melting point compilation (Tetko et al.; mined from patent text by program, amines drawn as free bases though some values may be those of a salt).

melting point	SMILES
107 to 110 °C	COCc1nccc(SCCCSc2ccc3ncc([N+](=O)[O-])n3n2)c1C
90.1 °C	CC#CCOc1cc(Oc2ccc(F)c(C(F)(F)F)c2)ncn1
47 to 48 °C	Cc1cc(C)c(C=NCc2ccc(Cl)nc2)c(C)c1
174 to 175 °C	CCCc1nccn1-c1nc(-c2ccc(Cl)cc2)c(CCC(=O)O)o1
153 to 154 °C	O=C1c2ccccc2-c2ccc(-c3nc(COc4ccc(CCCn5ccnc5)cc4)co3)cc21
147 to 149 °C	O=C(NC(NC(=S)Nc1cccnc1)C(F)(F)F)c1ccc(Cl)cc1 (stereo not given)
152 to 155 °C	O=c1ccc([N+](=O)[O-])cn1[C@@H]1c2ccccc2OCC[C@H]1O (relative stereo)
138 to 139 °C	CCOC(=O)c1cc2cccc(NS(=O)(=O)c3ccccc3C(F)(F)F)c2[nH]1
213 to 215 °C	Fc1cc(CC2(Cc3ccnc(F)c3)c3ccccc3-c3nc(-c4ccccc4)ncc32)ccn1
124 to 126 °C	Cn1nc(-c2c(F)cccc2Cl)nc1-c1ccc(CBr)c(Cl)c1
178 °C	O=C(c1cc(=O)c2cc(O)ccc2[nH]1)N1CCC(O)(Cc2ccccc2)CC1
104 to 106 °C	CCc1cccc(CC)c1NC(=O)C1c2ccccc2COc2c(C)ccc(C)c21 (stereo not given)
145 to 146 °C	O=C1N(Cc2ccc(Cl)s2)c2ccccc2C12COc1cc3c(cc12)OCO3 (stereo not given)
176 to 177 °C	CNC(=O)NS(=O)(=O)c1ccccc1CCC(F)(F)F
145 to 146 °C	CC(O)(CNc1ccc(S(=O)(=O)c2ccccc2)cc1)C(F)(F)F (stereo not given)
155 to 156 °C	O=C(O)/C=C/c1ccc(C(=C2CCCCCC2)c2ccc(O)c(Cl)c2)cc1
151 °C	N[C@@H]1CN2C(=O)N(c3cc(Cl)nc(Cl)c3)C(=O)[C@@]2(Cc2ccc(OC(F)(F)F)cc2)C1
293 to 295 °C	CNC(=O)c1ccccc1Nc1nc(Nc2ccc3c(c2)NC(=O)CCC3)ncc1Cl
334 °C	CCCn1c(=O)[nH]c2ccc(C(=O)c3nc(NS(C)(=O)=O)c4ccccn34)cc2c1=O
273 to 275 °C	CCOC(=O)c1cc2c(cn1)[nH]c1cccc(Oc3ncccn3)c12
174 to 175 °C	COc1ccc(Nc2ccc3c(c2)OCC(=O)N3)cc1
129 to 131 °C	Cc1ccccc1-c1ccc(C(=O)N2Cc3ccc(C(=O)NCCCCc4ccccc4)n3Cc3ccccc32)cc1C
160 to 162 °C	CC(=Cc1ccc(-c2noc3cc(Cl)ccc23)cc1)[N+](=O)[O-]
195 to 197 °C	Cc1nc(N(C)C)n2ncc(-c3ccncc3)c2n1
116 to 118 °C	COc1ccc2c(c1)C(=O)CCC21CCC(=O)N(C)C1=O (stereo not given)

melting point	SMILES
272 °C	NS(=O)(=O)c1ccc(-c2nc(-c3cnn4c(C(F)(F)F)cc(-c5ccc(C(F)(F)F)cc5)nc34)no2)s1
139 to 141 °C	Nc1c(CC(=O)O)cccc1S(=O)(=O)c1ccc(Cl)cc1
288 to 292 °C	N=C(N)c1ccc(-c2ccc(-n3cc(CCC(=O)O)c4ccccc43)nn2)cc1
140 to 141 °C	O=C1Nc2ccc(C#CCCN3CCC(Cc4ccccc4)CC3)cc2C1=O
223 to 225 °C	Nc1ncc(-c2cnc3ccc(-c4ccc(OCC5(CNC(=O)C6CC6)COC5)cc4)nn23)cc1C(F)(F)F
161 to 162 °C	O=C(Nc1ccc(CCc2nnn[nH]2)cc1)C(F)(F)C(F)(F)C(F)(F)F
115 to 116 °C	O=C(NC(Cc1ccc(C(F)(F)F)cc1)C(=O)c1ccc(F)cc1)c1cc(=O)cco1 (stereo not given)
167 to 169 °C	O=c1[nH]c2c(Cl)cccc2c(=O)n1CCCN1CC2CCC(C1)N2c1ccc(Cl)cc1
173 to 174 °C	Cc1c(NC(=O)CCCC(=O)c2ccc(Cl)cc2)ccc2cc(CN3CCCC3)cnc12
108 to 109 °C	CCCCC(c1cc(F)ccc1F)S(=O)c1ccc(Cl)cc1 (stereo not given)
221 to 222 °C	O=Cc1c(-c2ccccc2)nn2ccccc12
> 350 °C	Cc1cc(-c2cc3ncccc3c(=O)[nH]2)cc(C)c1O
177 to 178 °C	O=C1Cc2cc3c(CCC4CCN(Cc5ccc(Br)cc5)CC4)noc3cc2N1
180 to 182 °C	CNc1nc(-c2cccc(NC(=O)CCc3ccccc3)c2)c2cc(OC)c(OC)cc2n1
102 to 105 °C	COC(=O)C1Cc2c([nH]c3ccccc23)C(c2c(Cl)cccc2Cl)N1 (stereo not given)
232 to 235 °C	CC(C)[C@H]1CC[C@H](Nc2ncc(Cc3ccc(O)nc3)c3ncccc23)CC1
217 to 220 °C	CNc1nc2ccccc2n(-c2ccc(Cl)cc2)c1=O
270 to 275 °C	N#Cc1c2ccccc2c(C=O)c2ccccc12
115 to 116 °C	CCCOc1ccc(C)cc1-c1nc2c(CCC)nn(C)c2c(=O)[nH]1
> 275 °C	Cc1ccc(-n2c(-c3sc(Nc4ccc(Cl)cc4)nc3-c3ccccc3)nc3ccccc3c2=O)cc1
176 to 177 °C	CSc1ccc(-c2nn(Cc3ccc(F)cc3F)c(=S)cc2-c2ccc(Cl)cc2)cc1
204 to 207 °C	Brc1cccc(Nc2nc(OCC3CCCCC3)c3[nH]cnc3n2)c1
258 to 260 °C	Oc1cc(Br)c2oc(-c3ccc(O)c(F)c3F)nc2c1
145 °C	O=C(O)COc1ccc(SCc2ccc(OCc3ccc(C(F)(F)F)cc3)cc2)c2c1CCC2
288 to 290 °C	CCn1cc(C(=O)O)c(=O)c2cc(N)c(-c3cc(C)nc(C)c3)cc21

Continued, molecule first:

SMILES	melting point
COC(=O)CCC1OC(=O)C(O)=C1c1ccccc1 (stereo not given)	135 to 136 °C
CCCCCCN(Cc1ccc(N(C)C)cc1)c1c(N[C@@H](Cc2ccccc2)C(=O)O)c(=O)c1=O	77 to 80 °C
Nc1ccc(CCC(=O)NC23CC4CC(CC(C4)C2)C3)cc1N	151 to 152 °C
C=CCOc1ccc(C)c2c1C(C)(C)C(=O)N2Cc1ccccc1	107 to 108 °C
Cc1csc(CNC(=O)c2sc(N3CCN(CC4CC4(F)F)C3=O)nc2C)n1 (stereo not given)	157 to 159 °C
C=CC(C)(C)C(=O)C(Oc1ccc(Cl)cc1)n1ccnc1 (stereo not given)	72 to 74 °C
CCOC(=O)C(NC(=O)CNC(=O)CCl)C(=O)OCC	104 to 105 °C
N#Cc1cc(C2=NOC(c3cc(Cl)cc(Cl)c3)(C(F)(F)F)C2)ccc1-n1cc(Cl)cn1 (stereo not given)	190 to 191 °C
CNC(=O)c1cc(F)c(Cl)cc1F	128 °C
CN(C)OCc1nnc2n1-c1ccc(Cl)cc1C(c1ccccc1)=NC2	174 °C
CC12C=CC(C1)C(C(N)=O)C2(C(N)=O)c1cccc(Br)c1 (stereo not given)	111 to 113 °C
CCOC(=O)c1nccc(NC=O)n1	205 to 206 °C
O=C(O)CCCCCc1ccc2ccccc2n1	105 to 108 °C
COCc1cccc(C(=O)c2nc(OC)cc(OC)n2)c1[N+](=O)[O-]	111 to 113 °C
O=S1(=O)N=C(NCc2ccco2)Nc2cc(Cl)sc21	224 to 225 °C
CCCCCCCCCCCCCCOCC(C)(O)CNCCO (stereo not given)	49.1 to 50.2 °C
CC(CC(=O)O)C(=O)c1ccc2c(c1)OCC(=O)N2 (stereo not given)	170 to 172 °C
COC(=O)C=CC(C)Oc1ccc(OCc2ccccc2)cc1 (stereo not given)	80 to 89 °C
CCCN(C1CCC1)[C@H]1COc2c(F)ccc(C(N)=O)c2C1	107 to 109 °C
CC(CCC(=O)O)(Sc1cc(C(C)(C)C)c(O)c(C(C)(C)C)c1)Sc1cc(C(C)(C)C)c(O)c(C(C)(C)C)c1	90 to 92 °C
N[C@@H](CSCc1ccc(C(=O)O)cc1)C(=O)O	> 260 °C
COC(=O)C#CC(=O)c1ccc(Cl)c(Cl)c1	58 to 59 °C
COC(=O)Cc1cc2cc(O)ccc2s1	136 to 137 °C
CCCCCCCCCCCC#Cc1ccccc1C=C(P(=O)(O)O)P(=O)(O)O	141 to 142 °C
CC(=O)Oc1ccc(CCl)cc1C(OC(C)=O)OC(C)=O	93 to 95 °C

SMILES	melting point
COCC1CN(c2ccc(C3CCCCC3)c(N)c2)C(=O)O1 (racemic)	130 to 132 °C
CCOC(=O)[C@H](CSCCc1ccccc1)NC(=O)C(CSC(C)=O)Cc1ccccc1 (stereo not given in full)	63 to 64 °C
COC(=O)c1cn(C2CC2)c2cc(F)c(F)cc2c1=O	223 to 224 °C
CC1(C)CCCc2cc3c(cc21)C(C)(C)CCC3(C)C	94 to 95 °C
Cc1cc(C)c(N2CCCc3c2nn(C)c3C(=O)O)c(Cl)c1	248 °C
CC(=O)N1C[C@H]2CCC[C@H]2OC1=O (relative stereo)	80 to 83 °C
CONC(=O)C=C1SC(Nc2c(Cl)cccc2Cl)=NC1=O	205 to 206 °C
CCC(=O)NCC1CC1c1cccc2nn(CC)cc12 (stereo not given)	114 to 115 °C
CSC1NC(=O)N(c2ccc(C)cc2)C(=O)N1N=C(C)C (stereo not given)	170 to 173 °C
CCCCCCCCc1ccc(CCC(NC(C)=O)(C(=O)OCC)C(=O)OCC)cc1	61 °C
COC(=O)CC1Sc2sc(S(N)(=O)=O)cc2NC1=O (stereo not given)	195 to 197 °C
CCCC[C@@]1(O)CCC[C@@]2(C)CC[C@@H]3C[C@@]21OC3(C)C	90 to 92 °C
CCOC1(NC(=O)c2ccccc2)CC1	108 to 109 °C
CC(C)(C)[N+]([O-])=Cc1ccc(S(C)(=O)=O)o1	138 °C
CC1(C)CCOC1=Cn1cncn1	47 °C
O=C1NCc2ccccc2N1C1CCN(Cc2ccccc2)CC1	120 °C
CCCCCS(=O)(=O)NC(=O)CCc1ccc(OCCOC)cc1OCC1CCCCC1	81 to 82 °C
OC(CNCCCCCCOCCCCc1ccccc1)c1ccc2c(n1)COC(c1ccccc1)O2 (stereo not given)	67 to 73 °C
Cc1cc(SC2=C(O)CC(CCc3ccsc3)(C(C)C)OC2=O)c(C(C)(C)C)cc1CO (stereo not given)	63 to 70 °C
CCc1cc([N+](=O)[O-])c(NC(CC)COC)c([N+](=O)[O-])c1COC (stereo not given)	54 to 55 °C
Cc1cccc(NC(=O)NC2N=C(C3CCCCC3)c3cccc(C)c3N(CC(=O)N3CCCCCCC3)C2=O)c1 (stereo not given)	154 to 155 °C
CNC(=O)CCCc1cncc2ccc(OC)cc12	117 to 119 °C
CCOc1nc2cccc(CC)c2c(=O)o1	89 to 91 °C
CP(=O)(O)CCC(=O)Nc1c(Br)cc(Br)cc1Br	248 °C
C1=C(c2c[nH]c3ncccc23)CCN(CCOc2cccc3ncccc23)C1	202 to 205 °C
